One assay relates to recombinant NL4-3 virus (NLRluc, Renilla luciferase in nef, Gag P373S). Kind of assay: HIV cell culture assay (Renilla luciferase reporter virus in MT-2 cells). Type of assay: cell-based. As to conditions: Renilla, NL43, read-out: 10% FBS EC50, 10% FBS, class symbols A/B/C. The method, boiled down:
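MT-2 cells infected with NL4-3 reporter virus (Renilla luciferase replacing part of nef, Gag P373S), made by 293T transfection and titered in MT-2 cells by luciferase. Infection runs 4–5 days with serial inhibitor dilutions. Antiviral activity read as Renilla luciferase activity (Dual Luciferase reagents).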
(In a reporter assay the amount or activity of a reporter protein is the signal.)
For the molecule `CC1(C)C(c2ccc(C(=O)O)cc2)=CC[C@]2(C)CN(C(=O)c3ccc(CN4CCS(=O)(=O)CC4)cc3)CC=C12` [Example 31], the EC50 was more than 3 µM.
`CC1(C)C(c2ccc(C(=O)O)cc2)=CC[C@]2(C)CN(C(=O)c3cccc(C(=O)N4CCS(=O)(=O)CC4)c3)CC=C12` [Example 68]: the EC50 was more than 3 µM.
Still for that read-out and setting: for `CC1(C)C(c2ccc(C(=O)O)cc2)=CC[C@]2(C)CN(c3ncc(Br)s3)CC=C12` [Example 77] the value was more than 3 µM.
`CC1(C)C(c2ccc(C(=O)O)cc2)=CC[C@]2(C)CN(C(=O)c3cncc(C(=O)NCCCN4CCS(=O)(=O)CC4)c3)CC=C12` [Example 71]: the EC50 is more than 3 µM.
For `CC1(C)C(c2ccc(C(=O)O)cc2)=CC[C@]2(C)CN(C(=O)c3ccccc3-c3nc4ccc(F)c(F)c4o3)CC=C12` [Example A314], the EC50 was 0.5 to 3 µM.
Still for that read-out and setting: the figure for `CC1(C)C(c2ccc(C(=O)O)cc2)=CC[C@]2(C)CN(C(=O)c3ccc4[nH]ccc4c3)CC=C12` [Example 43] is more than 3 µM.
Same read-out and setting: the figure for `COc1cccc(C(=O)N2CC=C3C(C)(C)C(c4ccc(C(=O)O)cc4)=CC[C@]3(C)C2)c1` [Example 18] is more than 3 µM.
In the case of `CC1(C)C(c2ccc(C(=O)O)cc2)=CC[C@]2(C)CN(C(=O)c3ccc(C(=O)N4CC=C5C(C)(C)C(c6ccc(C(=O)O)cc6)=CC[C@]5(C)C4)s3)CC=C12` [Example 62], the EC50 is more than 3 µM.
As to `CC1(C)C(c2ccc(C(=O)O)cc2)=CC[C@]2(C)CN(C(=O)c3ccccc3-c3nc4ccc(Cl)cc4o3)CC=C12` [Example A318], the EC50 was less than 0.5 µM.
The same measure, in the same setting: for `CN(C)c1cccc(C(=O)N2CC=C3C(C)(C)C(c4ccc(C(=O)O)cc4)=CC[C@]3(C)C2)c1` [Example 24] the value was more than 3 µM; for `CC1(C)C(c2ccc(C(=O)O)cc2)=CC[C@]2(C)CN(c3ccc(C(N)=O)cc3)CC=C12` [Example B17], more than 3 µM.
Turning to `CC(C)(C)OC(=O)N[C@H]1CC[C@H](C(=O)N2CC=C3C(C)(C)C(c4ccc(C(=O)O)cc4)=CC[C@]3(C)C2)CC1` [Example 15], the EC50 is more than 3 µM.
Same read-out and setting: the figure for `CC(C)(C)OC(=O)N1CCN(c2ccccc2C(=O)N2CCC3C(C)(C)C(c4ccc(C(=O)O)cc4)CC[C@]3(C)C2)CC1` (stereo partly drawn) [Example 83, 4-((8aS)-2-(2-(4-(tert-butoxycarbonyl)piperazin-1-yl)benzoyl)-5,5,8a-trimethyldecahydroisoquinolin-6-yl)benzoic acid] is less than 0.5 µM; for `CC1(C)C(c2ccc(C(=O)O)cc2)=CC[C@]2(C)CN(C(=O)c3ccccc3-c3nc4cc(C(=O)O)ccc4n3Cc3ccccc3)CC=C12` [Example A290] it is more than 3 µM.
As to `CN(C)c1ccccc1C(=O)N1CC=C2C(C)(C)C(c3ccc(C(=O)O)cc3)=CC[C@]2(C)C1` [Example 23], the EC50 is more than 3 µM.
On to `CC1(C)C(c2ccc(C(=O)O)cc2)=CC[C@]2(C)CN(C(=O)C3(c4ccccc4F)CCCC3)CC=C12` [Example A1], for which the EC50 was more than 3 µM.
Still for that read-out and setting: the figure for `CC1(C)C(c2ccc(C(=O)O)cc2)=CC[C@]2(C)CN(C(=O)c3ccccc3C(=O)N3CCS(=O)(=O)CC3)CC=C12` [Example 67] is more than 3 µM; for `CC(C)(C)OC(=O)N[C@H]1CC[C@@H](C(=O)N2CC=C3C(C)(C)C(c4ccc(C(=O)O)cc4)=CC[C@]3(C)C2)CC1` [Example 16] it is more than 3 µM.
Regarding `CC1(C)C(c2ccc(C(=O)O)cc2)=CC[C@]2(C)CN(C(=O)C(=O)N3CCC[C@H]3C(=O)NCCN3CCS(=O)(=O)CC3)CC[C@@H]12` [Example C1, 4-((4aS,8aS)-2-(2-((S)-2-((2-(1,1-dioxidothiomorpholino)ethyl)carbamoyl)pyrrolidin-1-yl)-2-oxoacetyl)-5,5,8a-trimethyl-1,2,3,4,4a,5,8,8a-octahydroisoquinolin-6-yl)benzoic acid], the EC50 was more than 3 µM.
As to `CN(C)CC(=O)N1CC=C2C(C)(C)C(c3ccc(C(=O)O)cc3)=CC[C@]2(C)C1` [Example 35], the EC50 was more than 3 µM.
`CC(C)C[C@H](N)C(=O)N1CCC(C(=O)N2CC=C3C(C)(C)C(c4ccc(C(=O)O)cc4)=CC[C@]3(C)C2)(c2ccccc2)CC1` [Example 56]: the EC50 was less than 0.5 µM.
Same read-out and setting: for `CC1(C)C(c2ccc(C(=O)O)cc2)=CC[C@]2(C)CN(C(=O)CN3CCS(=O)(=O)CC3)CC=C12` [Example 37] the value was more than 3 µM; for `CC1(C)C(c2ccc(C(=O)O)cc2)=CC[C@]2(C)CN(C(=O)c3ccccc3)CC=C12` [Example 1, (S)-4-(2-benzoyl-5,5,8a-trimethyl-1,2,3,5,8,8a-hexahydroisoquinolin-6-yl)benzoic acid], more than 3 µM; for `CC1(C)C(c2ccc(C(=O)O)cc2)=CC[C@]2(C)CN(C(=O)c3ccccc3-c3nc4ccccc4n3CCN3CCS(=O)(=O)CC3)CC=C12` [Example 81], 0.5 to 3 µM.
Consider `CC1(C)C(c2ccc(C(=O)O)cc2)=CC[C@]2(C)CN(C(=O)c3ccc(CN)cc3)CC=C12` [Example 53], for which the EC50 was more than 3 µM.

Staying with this assay, now noted: Renilla, NL43, read-out: 10% FBS EC50, 10% FBS, numeric values.
For `CC1(C)C(c2ccc(C(=O)O)cc2)=CC[C@]2(C)CN(C(=O)c3ccccc3-c3nc4ccccc4n3-c3ccccc3)CC=C12` [Example A279], the EC50 is 0.39 µM.
`COc1ccc2oc(-c3ccccc3C(=O)N3CC=C4C(C)(C)C(c5ccc(C(=O)O)cc5)=CC[C@]4(C)C3)nc2c1` [Example A320]: the EC50 stood at 0.183 µM.
Consider `CC(C)C[C@H](NC(=O)OC(C)(C)C)C(=O)N1CCC(C(=O)N2CC=C3C(C)(C)[C@@H](c4ccc(C(=O)O)cc4)CC[C@]3(C)C2)(c2ccccc2)CC1` [Example 89], for which the EC50 turned out to be 0.067 µM.
For the molecule `CC(C)[C@H]1CC[C@H](C)C[C@@H]1OC(=O)c1ccccc1C(=O)N1CC=C2C(C)(C)C(c3ccc(C(=O)O)cc3)=CC[C@]2(C)C1` [Example A36], the EC50 turned out to be 0.38 µM.
On to `CC1(C)C(c2ccc(C(=O)O)cc2)=CC[C@]2(C)CN(C(=O)c3ccccc3N3CCN(CCN4CCS(=O)(=O)CC4)CC3)CC=C12` [Example 44], for which the EC50 worked out at 0.52 µM.
In the case of `CC1(C)C(c2ccc(C(=O)O)cc2)=CC[C@]2(C)CN(C(=O)c3[nH]c4ccccc4c3-c3ccccc3)CC=C12` [Example A112], the EC50 turned out to be 1.1 µM.
As for `CC1(C)C(c2ccc(C(=O)O)cc2)=CC[C@]2(C)CN(C(=O)c3ccccc3-c3nc4cc(F)c(Cl)cc4[nH]3)CC=C12` [Example A260], the EC50 came out at 0.298 µM.
On the same count and under the same terms, for `CC1(C)C(c2ccc(C(=O)O)cc2)=CC[C@]2(C)CN(C(=O)c3ccccc3-c3nc4cc(Br)ccc4o3)CC=C12` [Example A315] the value was 0.127 µM; for `CC1(C)C(c2ccc(C(=O)O)cc2)=CC[C@]2(C)CN(c3cc(-c4nnn(CCN5CCS(=O)(=O)CC5)n4)cc([N+](=O)[O-])c3)CC=C12` [Example B1, (S)-4-(2-(3-(2-(2-(1,1-dioxidothiomorpholino)ethyl)-2H-tetrazol-5-yl)-5-nitrophenyl)-5,5,8a-trimethyl-1,2,3,5,8,8a-hexahydroisoquinolin-6-yl)benzoic acid], 0.024 µM.
Turning to `CC1(C)C(c2ccc(C(=O)O)cc2)=CC[C@]2(C)CN(C(=O)c3ccccc3-c3nc4ccccc4n3CC34CCN(CC3)CC4)CC=C12` [Example A275], the EC50 stood at 1.7 µM.
As for `CC1(C)C(c2ccc(C(=O)O)cc2)=CC[C@]2(C)CN(c3cc(-c4nnnn4CCN4CCS(=O)(=O)CC4)cc([N+](=O)[O-])c3)CC=C12` [Example B2, (S)-4-(2-(3-(1-(2-(1,1-dioxidothiomorpholino)ethyl)-1H-tetrazol-5-yl)-5-nitrophenyl)-5,5,8a-trimethyl-1,2,3,5,8,8a-hexahydroisoquinolin-6-yl)benzoic acid], the EC50 turned out to be 0.76 µM.
In the case of `CC1(C)C(c2ccc(C(=O)O)cc2)=CC[C@]2(C)CN(c3cccc(Br)n3)CC=C12` [Example 76], the EC50 was found to be 0.98 µM.
On the same count and under the same terms, the figure for `CC1(C)C(c2ccc(C(=O)O)cc2)=CC[C@]2(C)CN(C(=O)C3C4CCC(C4)C3C(=O)N3CC=C4C(C)(C)C(c5ccc(C(=O)O)cc5)=CC[C@]4(C)C3)CC=C12` (some centres unmarked) [Example 65] is 2.81 µM; for `CC1(C)C(c2ccc(C(=O)O)cc2)=CC[C@]2(C)CN(c3nc4ccccc4s3)CC=C12` [Example 80] it is 0.179 µM.
Consider `CC1(C)C(c2ccc(C(=O)O)cc2)=CC[C@]2(C)CN(c3cc(O)cc(-c4nnn(CCN5CCS(=O)(=O)CC5)n4)c3)CC=C12` [Example B9], for which the EC50 is 1.17 µM.
`CC1(C)C(c2ccc(C(=O)O)cc2)=CC[C@]2(C)CN(C(=O)c3ccccc3-c3nc4ccccc4[nH]3)CC=C12` [Example A114]: the EC50 stood at 0.052 µM.
For the molecule `CC(C)(C)OC(=O)N1CCC(C(=O)N2CC=C3C(C)(C)C(c4ccc(C(=O)O)cc4)=CC[C@]3(C)C2)(c2ccccc2)CC1` [Example 46], the EC50 amounted to 0.25 µM.
With `CC(C)(C)OC(=O)N1CSC[C@@H]1C(=O)N1CCC(C(=O)N2CC=C3C(C)(C)C(c4ccc(C(=O)O)cc4)=CC[C@]3(C)C2)(c2ccccc2)CC1` [Example A204], the EC50 came out at 0.309 µM.
For the molecule `CC1(C)C(c2ccc(C(=O)O)cc2)=CC[C@]2(C)CN(c3nc(C(=O)O)cs3)CC=C12` [Example B16], the EC50 was 1.48 µM.
